From ChEMBL document CHEMBL2311382, “Tryptanthrin derivatives as Toxoplasma gondii inhibitors--structure-activity-relationship of the 6-position” (Bioorg Med Chem Lett, 2013)

Key:
[1] = Therapeutic index, ratio of TD50 for human foreskin fibroblast cells to ID 50 for Toxoplasma gondii; format: cell-based; settings: read-out: TI
[2] = Cytotoxicity against human foreskin fibroblast cells by colorimetric method; format: cell-based; settings: human foreskin fibroblast (HFF) cells, read-out: TD50 (the source's name)
Toxoplasma gondii = assay: Antimicrobial activity against Toxoplasma gondii assessed as inhibition of growth measured after 5 days by beta-galactosidase assay; format: functional; settings: 120 h, read-out: ID50 (the source's name)

Compound	selectivity ratio [1]	CC50 [2] [µM]	IC50 (Toxoplasma gondii) [µM]
CC1(O)c2ccccc2-n2c1nc1ccccc1c2=O (configuration not stated)	> 11	> 100	8.7
CC(=O)O[C@@H]1c2ccccc2N2C(=O)c3ccccc3N[C@@H]12	40	40	1
CC(=O)O/N=C1\c2ccccc2-n2c1nc1ccccc1c2=O	32	35	1.1
COc1cc(Cc2cnc(N)nc2N)cc(OC)c1OC [TRIMETHOPRIM]	> 3	> 100	15
CC1(O)c2cc(Br)ccc2-n2c1nc1ccccc1c2=O (configuration not stated)	> 14	> 100	7
CC(=O)CC1(O)c2ccccc2-n2c1nc1ccccc1c2=O (configuration not stated) [PHAITANTHRINS A]	49	11	0.23
O=CO/N=C1\c2ccccc2-n2c1nc1ccccc1c2=O	35	22	0.62
O=C1c2ccccc2-n2c1nc1ccccc1c2=O [TRYPTANTHRIN]	45	6.4	0.14
N/N=C1/c2cc(Br)ccc2-n2c1nc1ccccc1c2=O	250	79	0.31
CON=C1c2cc(Br)ccc2-n2c1nc1ccccc1c2=O (single isomer, unassigned)	> 1200	> 100	0.083
O=C1c2ccccc2N[C@H]2[C@H](O)c3ccccc3N12	50	12	0.24
O=C1c2cc(Br)ccc2-n2c1nc1ccccc1c2=O	> 33000	> 100	0.00323
O=C1c2ccccc2N[C@H]2[C@H](O)c3cc(Br)ccc3N12	> 50000	> 100	0.002
O=Nc1c2ccccc2n2c(O)c3ccccc3nc12	> 130	> 100	0.8
O=c1c2ccccc2nc2n1-c1ccc(Br)cc1/C2=N/O	590	50	0.085
CC(=O)N/N=C1/c2ccccc2-n2c1nc1ccccc1c2=O	> 8.3	> 100	12
N/N=C1/c2ccccc2-n2c1nc1ccccc1c2=O	16	32	2
CON=C1c2ccccc2-n2c1nc1ccccc1c2=O (mixture of isomers)	> 77	> 100	1.3
O=C(N/N=C1/c2ccccc2-n2c1nc1ccccc1c2=O)C(F)(F)F	> 63	> 100	1.6
